According to patent US9409952B2, “Peptide-compound cyclization method” (Chugai Seiyaku Kabushiki Kaisha, priority 2011, dated 2016):
Read-outs that look alike come from different tables or passages of the source. Starred links: 1 amine or outer side, 2 acyl side, 3 side chain; linkers in the order of their positions; H or OH if unused. Positions of bridges follow the written chain, without caps; N, C: chain ends. Non-standard residues stand in square brackets, D forms with d. Residues, ends and D or L forms follow the SMILES beside them. *: point of attachment. NMeF = CN[C@@H](Cc1ccccc1)C(=O)O; NMeGABA = CN(CCCC(=O)[*:2])[*:1]; NMeI = CC[C@H](C)[C@H](NC)C(=O)O; NMeβAla = CN(CCC(=O)[*:2])[*:1]; NMeL = CN[C@@H](CC(C)C)C(=O)O; NMeV = CN[C@H](C(=O)O)C(C)C; NMeA = CN[C@@H](C)C(=O)O; Piperidide = C1CCN(*)CC1; dNMeA = CN[C@H](C)C(=O)O; β3hA = C[C@H](N)CC(=O)O; NPrGly = CCCNCC(=O)O; Sar = CNCC(=O)O; tBu = CC(C)(C)*

How the values were obtained:
[1] = PAMPA (parallel artificial membrane permeability assay); format: in vitro ADME; settings: PAMPA
Summary of the method: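 Artificial membrane was 10% (w/v) egg lecithin plus 0.5% (w/v) cholesterol in dodecane on a PVDF filter. A 10 mM DMSO stock was added at 0.5% (v/v) to donor buffer (50 mM MOPSO, pH 6.5, 5.0% glycocholic acid). After 18 h at 37 °C, LC/MS or LC/UV gave donor and acceptor levels for Pe.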

[2] = Metabolic stability in human hepatic microsome; format: in vitro ADME; settings: microsomes
[3] = membrane permeation rate (Pe), 50 mM MOPSO buffer pH 6.5 with 5.0% glycocholic acid, 37° C., 18 hours, read-out: iPAMPA Pe
[4] = pH 7.4, human hepatic microsome, NADPH(+), read-out: CL NADPH(+)

| SMILES | Papp at 18 hours, 50 µM [1, 3] | microsomal CLint at 1 uM [2, 4] | Papp at 18 hours, 50 µM ([1]; pH 6.5) | microsomal CLint at 1 uM ([2]; human, pH 7.4, CL NADPH(+)) |
| --- | --- | --- | --- | --- |
| CC[C@H](C)[C@H]1C(=O)N[C@@H](C)CC(=O)N(C)[C@H](C)C(=O)N(C)[C@@H](Cc2ccccc2)C(=O)N(C)[C@@H](CC(C)C)C(=O)N[C@@H]([C@@H](C)O)C(=O)N(C)CC(=O)N[C@@H](COC(C)(C)C)C(=O)N(C)[C@@H](CC(C)C)C(=O)N1C [DP-789] (cyclo([NMeF][NMeL]T[Sar]S(tBu)[NMeL][NMeI][β3hA][dNMeA])) | 35 ×10⁻⁶ cm/s | 113 µL/min/mg |  |  |
| CC[C@H](C)[C@@H]1NC(=O)CCN(C)C(=O)C[C@@H](C(=O)N2CCCCC2)NC(=O)[C@H](CC(C)C)N(C)C(=O)[C@H](Cc2ccccc2)NC(=O)[C@H](CC(C)C)N(C)C(=O)[C@H](CC(C)C)N(C)C(=O)[C@H](C)N(C)C(=O)[C@H](CC(C)C)N(C)C(=O)[C@H]([C@@H](C)O)NC(=O)[C@H](Cc2ccccc2)N(C)C(=O)[C@H](C)N(C)C(=O)[C@H](CC(C)C)N(C)C1=O [DP-958] ([NMeβAla]I[NMeL][NMeA][NMeF]T[NMeL][NMeA][NMeL][NMeL]F[NMeL]D-Piperidide; lactam N-13) | 0.54 ×10⁻⁶ cm/s | 31 µL/min/mg |  |  |
| CC(C)C[C@H]1C(=O)N[C@@H](COC(C)(C)C)C(=O)N[C@H](C(=O)N2CCCCC2)CC(=O)N[C@@H](C)C(=O)N(C)[C@@H](C)C(=O)N(C)[C@@H](Cc2ccccc2)C(=O)N(C)[C@@H](CC(C)C)C(=O)N[C@@H]([C@@H](C)O)C(=O)N(C)CC(=O)N1C [DP-38] (A[NMeA][NMeF][NMeL]T[Sar][NMeL]S(tBu)D-Piperidide; lactam N-9) |  |  | 16 ×10⁻⁶ cm/s | 55 µL/min/mg |
| CC(C)C[C@H]1C(=O)N[C@@H](COC(C)(C)C)C(=O)N(C)[C@@H](Cc2ccccc2)C(=O)N(C)[C@@H](CC(C)C)C(=O)N[C@H](C(=O)N2CCCCC2)CC(=O)N(C)CCC(=O)N[C@@H]([C@@H](C)O)C(=O)N1C [DP-746] ([NMeβAla]T[NMeL]S(tBu)[NMeF][NMeL]D-Piperidide; lactam N-7) | 47 ×10⁻⁶ cm/s | 318 µL/min/mg |  |  |
| CC(C)C[C@@H]1NC(=O)[C@H](CC(C)C)N(C)C(=O)[C@H](C)N(C)C(=O)[C@H](Cc2ccccc2)NC(=O)[C@H](C(C)C)N(C)C(=O)CNC(=O)[C@H]([C@@H](C)O)NC(=O)[C@H](C)N(C)C(=O)[C@H](CC(C)C)N(C)C(=O)[C@H](C)N(C)C(=O)C[C@@H](C(=O)N(C)[C@@H](Cc2ccccc2)C(=O)N[C@@H](C)C(=O)N2CCCCC2)NC1=O [DP-181] ([NMeA][NMeL][NMeA]TG[NMeV]F[NMeA][NMeL]LD[NMeF]A-Piperidide; lactam N-11) | 18 ×10⁻⁶ cm/s | 13 µL/min/mg |  |  |
| CC(C)C[C@H]1C(=O)N[C@H](C(=O)N(C)[C@@H](Cc2ccccc2)C(=O)N[C@@H](C)C(=O)N2CCCCC2)CC(=O)N[C@H](C)C(=O)N(C)[C@@H](Cc2ccccc2)C(=O)N(C)[C@@H](CC(C)C)C(=O)N[C@@H]([C@@H](C)O)C(=O)N(C)[C@@H](C)C(=O)N(C)[C@@H](CC(C)C)C(=O)N[C@@H](C(C)C)C(=O)N1C [DP-197] ([dA][NMeF][NMeL]T[NMeA][NMeL]V[NMeL]D[NMeF]A-Piperidide; lactam N-9) | 27 ×10⁻⁶ cm/s | 48 µL/min/mg |  |  |
| CC[C@H](C)[C@@H]1NC(=O)[C@H](CC(C)C)N(C)C(=O)[C@H](C(C)C)N(C)C(=O)CCN(C)C(=O)C[C@@H](C(=O)N(C)[C@@H](Cc2ccccc2)C(=O)N[C@@H](C)C(=O)N2CCCCC2)NC(=O)[C@H]([C@@H](C)O)NC(=O)[C@H](Cc2ccccc2)N(C)C(=O)[C@H](C)N(C)C(=O)[C@H](CC(C)C)NC(=O)[C@H](C(C)C)N(C)C1=O [DP-447] ([NMeβAla][NMeV][NMeL]I[NMeV]L[NMeA][NMeF]TD[NMeF]A-Piperidide; lactam N-10) | 33 ×10⁻⁶ cm/s | 159 µL/min/mg |  |  |
| CC(C)C[C@@H]1NC(=O)[C@H]([C@@H](C)O)NC(=O)[C@H](CC(C)C)N(C)C(=O)[C@H](Cc2ccccc2)N(C)C(=O)[C@H](CC(C)C)N(C)C(=O)C[C@@H](C(=O)N2CCCCC2)NC(=O)[C@H](CC(C)C)N(C)C1=O [DP-722] ([NMeL][NMeF][NMeL]TL[NMeL]D-Piperidide; lactam N-7) | 45 ×10⁻⁶ cm/s | 311 µL/min/mg |  |  |
| CC(C)C[C@@H]1NC(=O)[C@H](Cc2ccccc2)N(C)C(=O)CNC(=O)[C@H]([C@@H](C)O)NC(=O)[C@H](CC(C)C)N(C)C(=O)[C@H](COC(C)(C)C)NC(=O)[C@H](C)N(C)C(=O)C[C@@H](C(=O)N2CCCCC2)NC(=O)[C@H](Cc2ccccc2)NC(=O)[C@H](CC(C)C)N(C)C1=O [DP-437] ([NMeA]S(tBu)[NMeL]TG[NMeF]L[NMeL]FD-Piperidide; lactam N-10) | 37 ×10⁻⁶ cm/s | 265 µL/min/mg |  |  |
| CC(C)C[C@H]1C(=O)NCC(=O)N[C@@H]([C@@H](C)O)C(=O)N(C)[C@@H](C(C)C)C(=O)N[C@@H](Cc2ccccc2)C(=O)N[C@H](C(=O)N(C)[C@@H](Cc2ccccc2)C(=O)N(C)[C@@H](Cc2ccccc2)C(=O)N[C@@H](C)C(=O)N2CCCCC2)CC(=O)N(C)[C@H](C)C(=O)N(C)[C@@H](C)C(=O)N[C@@H](C(C)C)C(=O)N(C)[C@@H](Cc2ccccc2)C(=O)N1C [DP-452] ([dNMeA][NMeA]V[NMeF][NMeL]GT[NMeV]FD[NMeF][NMeF]A-Piperidide; lactam N-10) | 22 ×10⁻⁶ cm/s | 21 µL/min/mg |  |  |
| CC(C)C[C@H]1C(=O)N[C@H](C(=O)N2CCCCC2)CC(=O)N(C)[C@@H](C)C(=O)N(C)[C@@H](Cc2ccccc2)C(=O)N(C)[C@@H](CC(C)C)C(=O)N[C@@H]([C@@H](C)O)C(=O)N(C)CC(=O)N[C@@H](COC(C)(C)C)C(=O)N1C [DP-697] ([NMeA][NMeF][NMeL]T[Sar]S(tBu)[NMeL]D-Piperidide; lactam N-8) | 35 ×10⁻⁶ cm/s | 87 µL/min/mg |  |  |
| CC[C@H](C)[C@@H]1NC(=O)[C@H](Cc2ccccc2)N(C)C(=O)[C@H](C(C)C)N(C)C(=O)[C@H](Cc2ccccc2)NC(=O)[C@H](CC(C)C)N(C)C(=O)[C@H](CC(C)C)NC(=O)[C@@H](C(C)C)NC(=O)C[C@@H](C(=O)N2CCCCC2)NC(=O)[C@H]([C@@H](C)O)NC(=O)[C@H](C)NC(=O)[C@H](C)N(C)C1=O [DP-230] ([dV]L[NMeL]F[NMeV][NMeF]I[NMeA]ATD-Piperidide; lactam N-11) | 44 ×10⁻⁶ cm/s | 31 µL/min/mg |  |  |
| CC(C)C[C@H]1C(=O)N(C)[C@@H](C)C(=O)N[C@@H](C(C)C)C(=O)N[C@H](C(=O)N(C)[C@@H](Cc2ccccc2)C(=O)N[C@@H](C)C(=O)N2CCCCC2)CC(=O)N(C)CCC(=O)N(C)[C@@H](C(C)C)C(=O)N(C)[C@@H](C)C(=O)N[C@@H](Cc2ccccc2)C(=O)N[C@@H]([C@@H](C)O)C(=O)N(C)[C@@H](C)C(=O)N1C [DP-448] ([NMeβAla][NMeV][NMeA]FT[NMeA][NMeL][NMeA]VD[NMeF]A-Piperidide; lactam N-10) | 6.2 ×10⁻⁶ cm/s | 27 µL/min/mg |  |  |
| CCCN1CC(=O)N(C)[C@@H](CC(C)C)C(=O)N[C@@H]([C@@H](C)O)C(=O)N(C)[C@@H](Cc2ccccc2)C(=O)N(C)[C@@H](CC(C)C)C(=O)N(C)[C@@H]([C@@H](C)CC)C(=O)N(C)[C@@H](C)C(=O)N[C@H](C(=O)N2CCCCC2)CC(=O)N(C)CC(=O)N[C@@H](COC(C)(C)C)C1=O [DP-543] ([Sar]S(tBu)[NPrGly][NMeL]T[NMeF][NMeL][NMeI][NMeA]D-Piperidide; lactam N-10) | 28 ×10⁻⁶ cm/s | 23 µL/min/mg |  |  |
| CC[C@H](C)[C@H]1C(=O)N(C)[C@@H](CC(C)C)C(=O)N[C@H](C(=O)N2CCCCC2)CC(=O)N(C)CCCC(=O)N[C@@H]([C@@H](C)O)C(=O)N(C)[C@@H](C)C(=O)N(C)[C@@H](Cc2ccccc2)C(=O)N(C)[C@@H](Cc2ccccc2)C(=O)N(C)[C@@H](CC(C)C)C(=O)NCC(=O)N1C [DP-262] ([NMeGABA]T[NMeA][NMeF][NMeF][NMeL]G[NMeI][NMeL]D-Piperidide; lactam N-10) | 38 ×10⁻⁶ cm/s | 94 µL/min/mg |  |  |
| CC[C@H](C)[C@@H]1NC(=O)[C@H](Cc2ccccc2)NC(=O)[C@@H](C)N(C)C(=O)C[C@@H](C(=O)N2CCCCC2)NC(=O)[C@H](Cc2ccccc2)N(C)C(=O)[C@H](Cc2ccccc2)NC(=O)[C@H](CC(C)C)NC(=O)[C@H]([C@@H](C)O)NC(=O)[C@H](CC(C)C)NC(=O)[C@H](CC(C)C)N(C)C1=O [DP-338] ([dNMeA]FI[NMeL]LTLF[NMeF]D-Piperidide; lactam N-10) | 4.9 ×10⁻⁶ cm/s | 146 µL/min/mg |  |  |
| CC(C)C[C@@H]1NC(=O)[C@H](CC(C)C)N(C)C(=O)[C@H]([C@@H](C)O)NC(=O)[C@H](Cc2ccccc2)N(C)C(=O)CN(C)C(=O)[C@H](CC(C)C)N(C)C(=O)[C@@H](C(C)C)NC(=O)C[C@@H](C(=O)N2CCCCC2)NC1=O [DP-714] ([dV][NMeL][Sar][NMeF]T[NMeL]LD-Piperidide; lactam N-8) | 31 ×10⁻⁶ cm/s | 145 µL/min/mg |  |  |
| CC[C@H](C)[C@H]1C(=O)N[C@@H](C)C(=O)N[C@H](C(=O)N2CCCCC2)CC(=O)N(C)[C@@H](C)C(=O)N[C@@H]([C@@H](C)O)C(=O)N(C)[C@@H](C)C(=O)N(C)[C@@H](C(C)C)C(=O)N[C@@H](Cc2ccccc2)C(=O)N(C)CC(=O)N(C)[C@@H](CC(C)C)C(=O)N1C [DP-73] ([NMeA]T[NMeA][NMeV]F[Sar][NMeL][NMeI]AD-Piperidide; lactam N-10) |  |  | 5.4 ×10⁻⁶ cm/s | 30 µL/min/mg |
| CC(C)C[C@@H]1NC(=O)C[C@@H](C(=O)N2CCCCC2)NC(=O)[C@H](COC(C)(C)C)NC(=O)[C@H]([C@@H](C)O)NC(=O)[C@H](Cc2ccccc2)N(C)C(=O)[C@H](CC(C)C)N(C)C(=O)CN(C)C1=O [DP-718] (L[Sar][NMeL][NMeF]TS(tBu)D-Piperidide; lactam N-7) | 17 ×10⁻⁶ cm/s | 99 µL/min/mg |  |  |
